Reference: patent publication US12441775B2, “BCL-W polypeptides and mimetics for treating or preventing chemotherapy-induced peripheral neuropathy and hearing loss” (Dana-Farber Cancer Institute, Inc., priority 2016, dated 2025)

Columns and labels:
[1] = test system: mice; assay: Accelerating RotaRod motor function test; assay type: in vivo, mouse; conditions: paclitaxel-treated mice, 4 mg/kg every other day for 8 days
Protocol: Paclitaxel treatment and behavioral testing. 2 month old age-matched bclw−/− and bclw+/+ mice (17-30 g) of either sex were injected intraperitoneally (IP) with 4 mg/kg paclitaxel (Bristol-Myers Squibb) every other day for 8 days (4 total injections). Paclitaxel was prepared as 1 part 6 mg/ml paclitaxel stock solution diluted in vehicle (1:1 v/v Cremophor EL [EMD Millipore] and dehydrated ethanol) and 2 parts sterile saline and injected at 10 μl/g. Control mice were injected with 1 part vehicle and 2 parts saline. […] For three days prior to the baseline testing, mice were weighed, trained on an automated RotaRod apparatus (4 rpm for 1 min without falling), and habituated in von Frey cages. The next two days, baseline behavioral performance was assessed and averaged. The first paclitaxel injection was given three days later, and mice were weighed and behaviorally tested 10 days after the final injection. To assay motor function, mice were placed on the RotaRod with a ramp of 4-40 rpm and 0.4 rpm/sec acceleration, and latency to fall was measured. […] Withdrawal threshold was determined to be the applied force at which the animal withdrew the stimulated paw on at least 2 of 10 applications. […] Mouse behavior was assessed by an experimenter blind to genotype and condition.

[2] = test system: Bclw; assay: qRT-PCR and Western blot of cell body and axon lysate after paclitaxel; assay type: cell-based, rat; conditions: 24 hours paclitaxel to axons; axons vs cell bodies
Protocol: (§1) Cell culture. Compartmented chamber (Campenot) cultures were prepared as described (see, e.g., Fenstermacher et al., Springer Protocols: Neuromethods, 103:105-124 (2015)), with modifications. Briefly, DRGs from embryonic day 15 (E15) rats of either sex were dissected and trypsinized. DRGs (1.2×10^5 cells) were plated in the center compartment of a Teflon divider (Camp10, Tyler Research; Campenot, 1982) affixed to a p35 culture dish coated with growth factor reduced Matrigel basement membrane (BD Biosciences) 1:45 in DMEM. Cultures were maintained in media consisting of Neurobasal (Invitrogen) with 2% B27 supplement (Invitrogen), 1% penicillin-streptomycin, 1% GlutaMAX (Life Technologies), 0.08% glucose, and 0.3 μM cytosine arabinoside (AraC) at 37° C., 7.5% CO2; BDNF+NGF (PeproTech) were added to the cell body compartment at a concentration of 10 ng/ml and to the axon compartment at a concentration of 100 ng/ml for 2d. On day 3, media was replaced and the AraC was omitted. On day 5, neurotrophins were removed from the cell body compartment and reduced to 1 ng/ml in the axon compartments for 3-5 days. For paclitaxel treatment experiments, 30 μM paclitaxel (Sigma-Aldrich) or vehicle control (0.1% DMSO) was added to either cell body or distal axon compartments on day 7 for 24 hours. For calpain inhibition experiments, 20 μM calpain inhibitor III (VWR) and paclitaxel were added simultaneously to distal axon compartment.
(§2) Western blotting. […] Using NIH ImageJ software, protein levels were quantified and levels of protein were normalized to GAPDH.
(§3) Quantitative reverse transcription-PCR. […] Quantitative real-time RT-PCR was performed using Taqman Gene expression assays (Applied Biosystems) to assess the expression of bclw (Rn00821025_g1), bcl2 (Rn99999125_m1), and bclxL (Rn00580568_g1). […]

[3] = test system: Bcl2; assay: as above; assay type: cell-based, rat; conditions: 24 hours paclitaxel to axons; axons or cell bodies
Protocol: as §1, §2, §3

[4] = test system: BclxL; assay: as above; assay type: cell-based, rat; conditions: 24 hours paclitaxel to axons; axons or cell bodies
Protocol: as §1, §2, §3

[5] = test system: axonal mitochondria of E15 DRG neurons; assay: TMRE measurement of mitochondrial membrane potential in microfluidic cultures; assay type: cell-based, rat; conditions: paclitaxel added to distal axon compartment
Protocol: Microfluidic chambers cultures were prepared as described (see, e.g., Fenstermacher et al., Nature Neuroscience, 19:690-696 (2016)), with modifications. Briefly, 3×10^4E15 DRG neurons (4 μl volume) were plated into one channel of a microfluidic device (Xona Microfluidics, SND450) affixed to a PDL/laminin-coated cover glass (Fisherbrand Microscope Cover Glass; 24×40-1.5). Cells were plated in media with 0.3 μM AraC; 50 ng/mL NGF+BDNF was added to cell body wells, and 100 ng/ml was added to axon wells. On day 2, cell body neurotrophins were reduced to 10 ng/ml. On day 4, cell body neurotrophins were reduced to 1 ng/ml and axon neurotrophins were reduced to 10 ng/ml. For paclitaxel treatment experiments, 60 μM paclitaxel or 0.1% DMSO vehicle control was added on day 5 to axon wells for 48 hours. Cells were fixed at room temperature with 4% PFA diluted 1:2 in media for 10 min, then undiluted 4% PFA for an additional 10 min.
Tetramethylrhodamine ethyl ester measurements of mitochondrial membrane potential. […] Fluorescence intensity of axonal mitochondria was measured by dividing the fluorescence intensity of each mitochondria (Fm) by the background fluorescence intensity of a nearby cytoplasmic region (Fc). Fluorescence intensity was measured using NIH ImageJ software for 80 mitochondria per condition across three experiments, by an observer blind to condition.

Q: For `CC(=O)O[C@H]1C(=O)[C@@]2(C)[C@H]([C@H](OC(=O)c3ccccc3)[C@]3(O)C[C@H](OC(=O)[C@H](O)[C@@H](NC(=O)c4ccccc4)c4ccccc4)C(C)=C1C3(C)C)[C@]1(OC(C)=O)CO[C@@H]1C[C@@H]2O` [paclitaxel], which “motor function (latency to fall)” value [1] is on record?
A: normal motor function

Q: What about the “Bclw mRNA and protein levels” value [2] of the same compound?
A: reduced Bclw mRNA and protein levels selectively in axons and not in cell bodies

Q: And the “Bcl2 mRNA or protein” value [3]?
A: did not alter

Q: And the “BclxL mRNA or protein” value [4]?
A: did not alter

Q: And the “axonal mitochondrial membrane potential (TMRE Fm/Fc)” value [5]?
A: reduced axonal mitochondrial membrane potential
